According to patent US20080112933A1 (priority 2004, published 2008):

Tests used:
[1] = tested on: hematopoietic progenitor cells; conditions: mouse, in vivo
[2] = tested on: hematopoietic progenitor cells; conditions: mouse, in vivo; remark: listed apart in the source
bone marrow MNCs [3] = assay: Competitive repopulation assay with treated bone marrow MNCs; type: in vivo, mouse; conditions: treated CD45.1 BM MNCs injected with equal number of CD45.2 BM MNCs into lethally irradiated CD45.2 mice; flow cytometry eight weeks after injection; FIG. 8
Procedure: In these experiments CD45.1 cells were either treated with suramin or untreated. They were then injected with an equal number of CD45.2 whole BM MNCs into lethally irradiated CD45.2 mice. Eight weeks following injection the contribution to bone marrow hematopoiesis of the untreated or treated cells was analyzed by flow cytometry.

[4] = tested on: bone marrow mononuclear cells; assay: CFU-C assay of treated bone marrow mononuclear cells; conditions: taken as showing no myelotoxicity
Gαs = Gαs (Mus musculus, UniProt P63094); assay: Gαs activity measured by cAMP production in bone marrow mononuclear cells; conditions: bone marrow mononuclear cells treated with the agent; FIG. 3
bone marrow MNCs [5] = assay: Long-term culture-initiating cell (LTC-IC) assay of treated bone marrow MNCs; conditions: treated bone marrow mononuclear cells; FIG. 4; taken as showing no myelotoxicity

Gαs, sequence (P63094 whole entry): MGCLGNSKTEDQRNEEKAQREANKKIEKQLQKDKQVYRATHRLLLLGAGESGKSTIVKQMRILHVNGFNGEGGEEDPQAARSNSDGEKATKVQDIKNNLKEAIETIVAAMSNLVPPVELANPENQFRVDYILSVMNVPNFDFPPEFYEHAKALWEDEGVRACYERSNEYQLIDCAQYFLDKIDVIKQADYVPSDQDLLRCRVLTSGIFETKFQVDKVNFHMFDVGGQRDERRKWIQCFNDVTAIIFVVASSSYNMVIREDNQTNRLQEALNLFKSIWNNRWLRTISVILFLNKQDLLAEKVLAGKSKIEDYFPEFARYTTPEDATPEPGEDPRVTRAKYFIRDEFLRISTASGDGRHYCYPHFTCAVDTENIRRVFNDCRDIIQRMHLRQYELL

Compound | engraftment potential: contribution in competitive transplants [1] | increase in the number of cells homing to the bone marrow [2] | ability to engraft and establish hematopoiesis in the bone marrow (bone marrow MNCs [3]) | ability of the cells to perform in CFU-C assay [4] | cAMP production (indicative of Gαs signaling) (Gαs) | ability of the cells to perform in LTC-IC assay (bone marrow MNCs [5])
cholera toxin | enhanced contribution in competitive transplants | ~75% | – | – | – | –
Cc1ccc(C(=O)Nc2ccc(S(=O)(=O)O)c3cc(S(=O)(=O)O)cc(S(=O)(=O)O)c23)cc1NC(=O)c1cccc(NC(=O)Nc2cccc(C(=O)Nc3cc(C(=O)Nc4ccc(S(=O)(=O)O)c5cc(S(=O)(=O)O)cc(S(=O)(=O)O)c45)ccc3C)c2)c1 [suramin] | – | – | reduction in their ability to engraft and establish hematopoiesis in the bone marrow | did not result in any impairment | reduction in the cAMP production | did not result in any impairment
